{
  "source": "patent US10195258B2",
  "about": "“Tape preparation of WT1 peptide cancer vaccine for transdermal administration” (NITTO DENKO CORPORATION, priority 2013, dated 2019)",
  "data": [
    {"tested_on": "antigen-specific cellular immunity (IFN-γ-producing spleen cells)", "assay": "Mouse immunization test 1 (tape preparation), ELISPOT", "type": "in vivo, genetically modified mouse (HLA-A*0201 type MHC)", "settings": "acid added to WT1 peptide tape preparation (Table 1)", "procedure": "Mouse immunization test was performed with the tape preparations using a model animal for immunological evaluation. Evaluation of the immunity induction level was performed by the ELISPOT method. Specifically, the hair of the back of the mouse was cut. The mouse was kept until it recovered from the skin damage due to the hair cutting. After that, a sample was applied to the back of the mouse for the predetermined time, and then removed. Then, the mouse was kept for predetermined days and the level of the antigen-specific cellular immunity was evaluated. After predetermined days from the application of the sample, the spleen was isolated and a spleen cell suspension was prepared. Spleen cells (3×10^6 cells/well) and the antigen peptide (100 μM) together with the culturing medium were placed into a well of an ELISPOT plate on which an anti-mouse IFN-γ antibody had been immobilized. The plate was cultured for 20 hours under the condition of 37° C. and 5% CO2. The number of the spots representing IFN-γ-producing cells (spot number/3×10^6 cells) was evaluated by the ELISPOT method.\nThe amount of administration of the tape preparation was set to 0.7 cm^2 as described above, the number of administrations was (24 hr/week)×once, and extraction of the spleen was carried out 6 days after the administration. The mouse used for the experiment was a genetically modified mouse by which cellular immunity induction caused by HLA-A*0201 type MHC-restricted peptide can be evaluated.\nIn Example 8, administration was carried out on skin that was injured with a microcutter (MICRO FEATHER No. 7330G, manufactured by Feather Safety Razor Co., Ltd.).", "values": [
      {"smiles": "CCCCCCCC(=O)O", "note": "[octanoic acid]", "Promotion of cellular immunity induction by acid as second cellular immunity induction promoter": "effective"},
      {"smiles": "CCCCCCCCCC(=O)O", "note": "[decanoic acid]", "Promotion of cellular immunity induction by acid as second cellular immunity induction promoter": "effective"},
      {"smiles": "CCCCCCCCCCCCCC(=O)O", "note": "[myristic acid]", "Promotion of cellular immunity induction by acid as second cellular immunity induction promoter": "particularly effective"},
      {"smiles": "CCCCCCCCCCCC(=O)O", "note": "[lauric acid]", "Promotion of cellular immunity induction by acid as second cellular immunity induction promoter": "particularly effective"},
      {"smiles": "CCCCCCCCCCCCCCCCCC(=O)O", "note": "[stearic acid]", "Promotion of cellular immunity induction by acid as second cellular immunity induction promoter": "effective"},
      {"smiles": "CC(C)CCCCCCCCCCCCCCC(=O)O", "note": "[isostearic acid]", "Promotion of cellular immunity induction by acid as second cellular immunity induction promoter": "particularly effective"},
      {"smiles": "CC(O)C(=O)O", "note": "(stereo not drawn) [lactic acid]", "Promotion of cellular immunity induction by acid as second cellular immunity induction promoter": "particularly effective"},
      {"smiles": "CCCCCCCC/C=C\\CCCCCCCC(=O)O", "note": "[oleic acid]", "Promotion of cellular immunity induction by acid as second cellular immunity induction promoter": "particularly effective"},
      {"smiles": "CCCCCCCCCCCCCCCC(=O)O", "note": "[palmitic acid]", "Promotion of cellular immunity induction by acid as second cellular immunity induction promoter": "effective"}
    ]}
  ]
}
